The values below come from US7384966B2, “2-arylbenzothiazole derivatives” (Pharminxo Limited, priority 2004, dated 2008).

The subject of one series is MDA 468. The experiment in a line: MTT assay, 3 day exposure, MDA 468. In kind it is cell-based. As to conditions: Homo sapiens, MDA 468 (breast), read-out: GI50 values in cell lines, MDA 468. How it is done: (§1) A range of compounds were evaluated in MTT assays following 3 day exposure against a panel of two human breast cancer cell lines MCF-7 (ER+) and MDA 468 (ER−), and two colon cancer cell lines KM12 and HCC 2998. In general the breast cell lines were more sensitive to the agents and the MDA 468 line the most sensitive of the four (Table 2). The benchmark active compound was 5-fluoro-2-(3,4-dimethoxyphenyl)benzothiazole (1) with GI50 values<0.1 nM against the two breast cell lines. […] The most interesting series of compounds were those combining a 5-fluoro group with two oxygenated substituents in the 3′,4′-positions where minor, seemingly conservative, structural changes were associated with a dramatic variations in activity (when compared to 1). […] In summary, this in vitro screen led to the identification of the fluorinated 2-(3,4-dimethoxyphenyl)benzothiazole structure as a novel antitumor pharmacophore with the 5-fluoro analogue (1) astride a pinnacle of activity.
(§2) The assays/methods used to generate the results referred to herein are well known to those skilled in the art and therefore it has not been necessary to describe them in detail.

For series [1], the system named is MCF-7, MDA 468, KM12 and HCC 2998. The experiment in a line: MTT assay, panel of four cell lines, results in words. The conditions noted are these: compared to compound 1. In kind it is cell-based, human. Here is the method: as §1
On the technique in general: Tetrazolium assays rely on reduction of a dye to a coloured formazan, in cell work by metabolically active cells.

The test system of another series is KM 12. As to the kind of experiment: MTT assay, 3 day exposure, KM12. In kind it is cell-based, human. As to conditions: KM 12 (colon), read-out: GI50 values in cell lines, KM 12. Here is the method:
as §1, §2

For the next series, the system named is MCF-7. As to the kind of experiment: MTT assay, 3 day exposure, MCF-7. It is filed as cell-based. The conditions noted are these: Homo sapiens, read-out: GI50 values in cell lines, MCF-7. Here is the method: as §1, §2
For the next series, the system named is HCC 2998. As to the kind of experiment: MTT assay, 3 day exposure, HCC 2998. As to conditions: Homo sapiens, read-out: GI50 values in cell lines, HCC 2998. It is filed as cell-based. How it is done:
as §1, §2

Setting [2] is: 72 h, MTT, 3 day exposure, triplicate.
Setting [3] is: Homo sapiens, KM12, 72 h, MTT, 3 day exposure, triplicate.
Setting [4] is: MCF7, 72 h, MCF-7 (breast), MTT, 3 day exposure, triplicate.
[5] abbreviates: HCC 2998, 72 h, HCC 2998 (colon), MTT, 3 day exposure, triplicate.
Where [6] appears, read: MCF7, MCF-7 (breast), value in nM.

Read-outs that look alike come from different tables or passages of the source.

As to `COc1ccc(-c2nc3cc(F)ccc3s2)cc1O` [Compound 5, 5-Fluoro-2-(3-hydroxy-4-methoxyphenyl)benzothiazole], the melting point was in the range of 169 to 172 °C. In addition, the GI50 with MDA 468 (setting [2]) worked out at 50 nM. Besides, the “growth inhibitory potency in words” value in series [1] is recorded as “dyschemotherapeutic effect”. The 50% growth inhibitory concentration (GI50) in the series with KM 12 (setting [3]) was 18400 nM. The concentration for 50% growth inhibition (GI50) in the series on MCF-7 (setting [4]) amounted to 500 nM. In the series on HCC 2998 (setting [5]), the GI50 stood at 7600 nM.
In the case of `COc1cc(-c2nc3cc(F)ccc3s2)ccc1O` [Compound 6, 5-Fluoro-2-(4-hydroxy-3-methoxyphenyl)benzothiazole], the melting point came out at 156 °C. The “growth inhibitory potency in words” value in series [1] is given as “dyschemotherapeutic effect”.
The molecule `Fc1ccc2sc(-c3ccc4c(c3)OCO4)nc2c1` [Compound 7, 5-Fluoro-2-(3,4-methylenedioxyphenyl)benzothiazole] registered a melting point of 161 to 164 °C. The GI50 with MDA 468 (setting [2]) was 570 nM. For the same molecule, in series [1], the “growth inhibitory potency in words” value was “dyschemotherapeutic effect”. Also, in the series on KM 12 (setting [3]), the GI50 amounted to 25100 nM. For the same molecule, the GI50 with MCF-7 (setting [4]) is 20700 nM. The concentration for 50% growth inhibition (GI50) in the series with HCC 2998 (setting [5]) was found to be 22300 nM.
Regarding `Oc1ccc(-c2nc3cc(F)ccc3s2)cc1O` [Compound 9, 5-Fluoro-2-(3,4-dihydroxyphenyl)benzothiazole], the melting point amounted to 197 °C. In addition, the “growth inhibitory potency in words” value in series [1] is “dyschemotherapeutic effect”.
The molecule `COc1ccc(-c2nc3cc(F)ccc3s2)cc1OC(C)=O` [Compound 11, 2-(3-Acetoxy-4-methoxyphenyl)-5-fluorobenzothiazole] had a melting point of 190 °C.
`CCC(=O)Oc1cc(-c2nc3cc(F)ccc3s2)ccc1OC` [Compound 13, 5-Fluoro-2-(3-propionyloxy-4-methoxyphenyl)benzothiazole] came in with a melting point of 150 °C.
Same read-out and setting: for `COc1ccc(-c2nc3cc(F)ccc3s2)cc1OC(=O)c1ccccc1` [Compound 14, 2-(3-Benzoyloxy-4-methoxyphenyl)-5-fluorobenzothiazole] the value was 160 °C; for `COc1ccc(-c2nc3cc(F)ccc3s2)cc1OC(=O)c1ccccc1Cl` [Compound 15, 2-[3-(2-Chlorobenzoyloxy)-4-methoxyphenyl]-5-fluorobenzothiazole], 190 °C.
Turning to `COc1ccc(-c2nc3cc(F)ccc3s2)cc1OC(=O)c1ccccc1Br` [Compound 16, 2-[3-(2-Bromobenzoyloxy)-4-methoxyphenyl]-5-fluorobenzothiazole], the melting point was 220 to 223 °C.
For the molecule `COc1ccc(-c2nc3cc(F)ccc3s2)cc1OC(=O)c1cccc([N+](=O)[O-])c1` [Compound 17, 5-Fluoro-2-[3-(3-nitrobenzoyloxy)-4-methoxyphenyl]benzothiazole], the melting point is 212 °C.
`COc1ccc(-c2nc3cc(F)ccc3s2)cc1OC(=O)c1ccc([N+](=O)[O-])cc1` [Compound 18, 5-Fluoro-2-[3-(4-nitrobenzoyloxy)-4-methoxyphenyl]benzothiazole]: the melting point is 198 °C.
`COc1ccc(-c2nc3cc(F)ccc3s2)cc1OC(=O)N1CCOCC1` [Compound 19, 5-Fluoro-2-[3-(morpholin-4-ylcarbonyloxy)-4-methoxyphenyl]benzothiazole] gave a melting point of 170 °C. The GI50 in the series with MDA 468 (value in nM) was found to be 0.64 nM. Moreover, in the series on KM 12 (setting [3]), the GI50 is 7140 nM. The GI50 in the series on MCF-7 (setting [6]) stood at 0.085 nM. The 50% growth inhibitory concentration (GI50) in the series on HCC 2998 (setting [5]) amounted to 7530 nM.
Take `COc1cc(-c2nc3cc(F)ccc3s2)ccc1OC(=O)N1CCOCC1` [Compound 20, 5-Fluoro-2-[4-(morpholin-4-ylcarbonyloxy)-3-methoxyphenyl]benzothiazole]: the melting point was 126 °C.
As to `COc1cc(-c2nc3cc(F)ccc3s2)ccc1OC(=O)c1cccc([N+](=O)[O-])c1` [Compound 21, 5-Fluoro-2-[4-(3-nitrobenzoyloxy)-3-methoxyphenyl]benzothiazole], the melting point came to 190 °C.
As to `COc1ccc(-c2nc3cc(F)ccc3s2)cc1C` [Compound 22, 5-Fluoro-2-(4-methoxy-3-methylphenyl)benzothiazole], the melting point was 120 °C. Moreover, the GI50 in the series on MDA 468 (setting [2]) turned out to be 58 nM. In addition, the 50% growth inhibitory concentration (GI50) with KM 12 (setting [3]) is 18600 nM. The GI50 in the series with MCF-7 (setting [4]) was determined as 48 nM. The GI50 with HCC 2998 (setting [5]) worked out at 540 nM.
Molecule `COc1ccc(-c2nc3cc(Cl)ccc3s2)cc1OC` [Compound 23, 5-Chloro-2-(3,4-dimethoxyphenyl)benzothiazole] gave a melting point of 154 to 155 °C. In addition, the GI50 in the series on MDA 468 (setting [2]) was 1000 nM. Also, the “growth inhibitory potency in words” value in series [1] is given as “essentially abolished inhibitory potency”. The GI50 in the series with KM 12 (setting [3]) is 12400 nM. For the same molecule, the GI50 in the series on MCF-7 (setting [4]) came to 27900 nM. Moreover, the GI50 in the series with HCC 2998 (setting [5]) was 4880 nM.
Molecule `COc1ccc(-c2nc3cc(Br)ccc3s2)cc1OC` [Compound 24, 5-Bromo-2-(3,4-dimethoxyphenyl)benzothiazole] gave a melting point of 157 to 158 °C. The GI50 in the series with MDA 468 (setting [2]) amounted to 770 nM. The “growth inhibitory potency in words” value in series [1] was “essentially abolished inhibitory potency”. The GI50 in the series with KM 12 (setting [3]) was 65200 nM. The GI50 with MCF-7 (setting [4]) amounted to 13600 nM. Moreover, the concentration for 50% growth inhibition (GI50) in the series on HCC 2998 (setting [5]) came to 20000 nM.
`COc1ccc(-c2nc3cc(F)ccc3s2)cc1F` [Compound 25, 5-Fluoro-2-(3-fluoro-4-methoxyphenyl)benzothiazole] returned a melting point of 157 to 159 °C. For the same molecule, in the series on MDA 468 (setting [2]), the GI50 came to 640 nM. The GI50 in the series on KM 12 (setting [3]) is 20600 nM. Further, the GI50 in the series with MCF-7 (setting [4]) is 870 nM. Besides, the GI50 with HCC 2998 (setting [5]) was 13700 nM.
On to `COc1ccc(-c2nc3cc(F)ccc3s2)cc1Cl` [Compound 26, 5-fluoro 2-(3-Chloro-4-methoxyphenyl)benzothiazole], for which the GI50 was found to be 480 nM with MDA 468 (setting [2]), 7050 nM in the series with KM 12 (setting [3]), 760 nM in the series with MCF-7 (setting [4]) and 2500 nM in the series on HCC 2998 (setting [5]).
As to `COc1ccc(-c2nc3cc(F)ccc3s2)cc1Br` [Compound 27, 2-(3-Bromo-4-methoxyphenyl)-5-fluorobenzothiazole], the melting point fell in the range of 173 to 175 °C. The GI50 in the series with MDA 468 (setting [2]) amounted to 420 nM. Besides, in the series with KM 12 (setting [3]), the concentration for 50% growth inhibition (GI50) turned out to be 6700 nM. The GI50 with MCF-7 (setting [4]) was found to be 850 nM. Moreover, the GI50 in the series with HCC 2998 (setting [5]) is 3450 nM.
In turn, `COc1ccc(-c2nc3cc(F)ccc3s2)cc1I` [Compound 28, 5-Fluoro-2-(3-iodo-4-methoxyphenyl)benzothiazole] gave a melting point of 167 °C. Besides, the GI50 in the series with MDA 468 (setting [2]) was 360 nM. Also, the GI50 in the series with KM 12 (setting [3]) was found to be 6900 nM. In addition, the GI50 with MCF-7 (setting [4]) was 820 nM. Also, the GI50 in the series with HCC 2998 (setting [5]) was found to be 940 nM.
In turn, `COc1ccc(-c2nc3cc(F)ccc3s2)cc1` [Compound 29, 5-Fluoro-2-(4-methoxyphenyl)benzothiazole] displayed a melting point of 123 to 124 °C. In addition, in the series on MDA 468 (setting [2]), the GI50 stood at 330 nM. In addition, the GI50 with KM 12 (setting [3]) came to 24600 nM. Besides, the concentration for 50% growth inhibition (GI50) with MCF-7 (setting [4]) was found to be 490 nM. The GI50 in the series on HCC 2998 (setting [5]) amounted to 12400 nM.
Turning to `COc1cc(OC)cc(-c2nc3cc(F)ccc3s2)c1` [Compound 42, 5-Fluoro-2-(3,5-dimethoxyphenyl)benzothiazole], the melting point came out at 115 °C. Moreover, the GI50 in the series on MDA 468 (setting [2]) is 310 nM. The “growth inhibitory potency in words” value in series [1] is “only low micromolar inhibitory potency”. Moreover, in the series with KM 12 (setting [3]), the 50% growth inhibitory concentration (GI50) worked out at 7550 nM. Further, in the series with MCF-7 (setting [4]), the GI50 stood at 1230 nM. Also, in the series with HCC 2998 (setting [5]), the GI50 amounted to 5210 nM.
In the case of `CCOc1ccc(-c2nc3cc(F)ccc3s2)cc1OCC` [Compound 46, 2-(3,4-Diethoxyphenyl)-5-fluorobenzothiazole], the melting point is 109 to 113 °C. For the same molecule, the GI50 in the series on MDA 468 (setting [2]) stood at 55 nM. In addition, the “growth inhibitory potency in words” value in series [1] is on record as “dyschemotherapeutic effect”. The GI50 in the series on KM 12 (setting [3]) was found to be 38500 nM. Also, in the series on MCF-7 (setting [4]), the GI50 was found to be 0.7 nM. Besides, the GI50 in the series on MCF-7 (setting [6]) was found to be 0.7 nM.
Regarding `CCCC(=O)Oc1cc(-c2nc3cc(F)ccc3s2)ccc1OC` [Compound 47, 2-(3-Butyroyloxy-4-methoxyphenyl)-5-fluorobenzothiazole], the melting point worked out at 125 °C.
On to `COc1ccc(-c2nc3cc(F)ccc3s2)c(OC)c1OC` [Compound 50, 2-(2,3,4-Trimethoxyphenyl)-5-fluorobenzothiazole], for which the melting point was in the range of 109 to 110 °C. Further, the 50% growth inhibitory concentration (GI50) with MDA 468 (value in nM) is 336 nM. For the same molecule, the GI50 with KM 12 (value in nM) came out at 2905.3 nM. Further, the GI50 in the series on MCF-7 (setting [6]) came out at 157 nM. The GI50 in the series with HCC 2998 (HCC 2998, HCC 2998 (colon), value in nM) was 203 nM.
In the case of `COc1ccc(-c2sc3ccc(F)cc3[n+]2[O-])cc1OC` [Compound 53, 2-(3,4-Dimethoxyphenyl)-5-fluorobenzothiazole N-oxide], the melting point worked out at 201.4 °C. The concentration for 50% growth inhibition (GI50) with MDA 468 (setting [2]) turned out to be 760 nM. Besides, the GI50 with KM 12 (setting [3]) was greater than 100000 nM. Also, the GI50 in the series on MCF-7 (setting [4]) is 920 nM. The GI50 with HCC 2998 (setting [5]) is 40300 nM.

For orientation: GI50 means the concentration that inhibits growth by half. Usually melting point stands for the temperature, or range, at which the solid turns liquid.
